{"source": "patent US20120022129A1", "about": "“Targeting of Histone Deacetylase 2, Protein Kinase CK2, and Nuclear Factor NRF2 For Treatment of Inflammatory Diseases” (priority 2008, published 2012)", "format_in_all_cases": "cell-based, human", "key": {"HDAC2 [1]": {"system": "HDAC2", "experiment": "Serine phosphorylation of immunoprecipitated HDAC2 in H292 cells", "protocol": "FIG. 6: CSE induced CK2-dependent HDAC2 phosphorylation in bronchial epithelial and small airway epithelial cells. [A (i)] H292 cells were treated with CSE (2.5%) for 0.5, 1, 2 and 4 h. Immunoprecipitated HDAC2 was analyzed for phosphorylation of serine residues using specific phospho-serine antibodies by SDS polyacrylamide gel. CSE induced significant cyclical phosphorylation of HDAC2 on serine residues at 0.5, 1 and 4 h. [A (ii)] Relative density of phosphor-serine expression normalized to immunoprecipitated HDAC2. [B (i)] […] Immunoprecipitated HDAC2 from whole cell lysates was probed for phosphorylation of serine residues, CSE induced a dose-dependent increase in HDAC2 serine phosphorylation. [B (ii)] Relative density of phospho-serine expression normalized to immunoprecipitated HDAC2. (C) H292 cells were treated with or without specific CK2 inhibitor, TBB. for 1 h, cells were washed with sterile 1×PBS and then treated with freshly prepared CSE (2.5%) for 0.5 h, Immunoprecipitated HDAC2 was assayed for phosphorylation on serine residues. […] (D) Relative density of phosphor-serine expression normalized to immunoprecipitated HDAC2.\nFIG. 14: Loss of Serine Sites S^394, S^422, S^424 Abrogates Cigarette Smoke Extract (CSE)-Induced Phosphatase-Independent HDAC2 Phosphorylation. A) Bronchial epithelial H292 cells were transfected with plasmid vector or flag-tagged WT HDAC2 (1-488) for 24 h using lipofectamine 2000 and then treated with or without 2.5% CSE for 0.5 h or B) 50 μM. acrolein for 1 h. Flag-tagged proteins were immunoprecipitated overnight and serine phosphorylation detected by western blots using phospho-serine antibodies. C) Flag-tagged WT HDAC2 was immunoprecipitated from whole cell lysates of H292 cells treated with 2.5% CSE for 0.5 h. Immunoprecipates were then washed and treated with 400 U of λ-phosphatase or buffer alone for 1 h at 30° C. Phosphorylation of serine sites were detected by western blots using anti-serine antibodies. D) H292 cells were transfected with plasmid vector, flag-tagged WT HDAC2 (1-488) or S394A, S394/411/422/424A and 1-400 aa HDAC2 mutants for 24 h with lipofectamine 2000. Cells were then treated with 2.5% CSE for 0.5 h. Serine phosphorylation of immunoprecipitated flag proteins was determined by western blot. E) Phosphatase activity was determined using non-radioactive assay system (Promega). H292 cells were treated with or without 2.5% CSE for 0.5, 2 and 6 h with serine/threonine […] (okadaic acid) used as a positive control. 5 μg protein was incubated with PP2A specific-peptide substrate RRA(pT)VA and reaction buffer for 15 minutes in a 96-well plate. Molybdate dye/additive mixture was added to stop the reaction and color allowed to develop for 15 minutes. Optical density of samples was determined using a microplate reader with a 630 nm filter.\nFIG. 18: Protein Kinase CK2 Inhibitors Blocks CSE-Induced HDAC2 Phosphorylation. A) Bronchial epithelial H292 cells transfected with a flag-tagged WT HDAC2 plasmid were treated with 2.5% CSE for 0.5 h. […] B) Relative density of phospho-serine expression normalized to immunoprecipitated HDAC2. Data expressed as mean±SEM (n=3). *** P<0.001, ### P<0.001 significant compared to control treatments.\nCell lysate controls were used."}, "HDAC2 [2]": {"system": "HDAC2", "experiment": "Co-immunoprecipitation of flag-tagged HDAC2 with binding partners in H292 cells", "settings": "H292, flag-tagged WT HDAC2", "protocol": "FIG. 16: HDAC2 serine phosphorylation is associated with increased interaction with catalytic subunits of protein kinase CK2 in response to CSE. A) Bronchial epithelial H292 cells transfected with either a control vector (control V) or flag-tagged WT HDAC2 were treated with 2.5% CSE for 0.5 h. […] C) Bronchial epithelial H292 cells transfected with flag-tagged WT HDAC2 were treated with either 2.5% CSE for 0.5 h, 25 or 50 μM Acrolein for 1 h and 200 μM H202 for 0.5 and 2 h respectively.\n(§1) A) H292 cells cultured on 8-well chamber slides were treated with 2.5% CSE for 0.5 h or 50 μM Acrolein for 1 h, washed and fixed with 4% PFA. Slides were incubated with HDAC2 and α-tubulin antibodies overnight at […]. Slides were mounted with antifade mounting solution and images analysed by an Olympus inverted microscope. B) H292 cells were transfected with plasmid vector (Ctrl V) or flag-tagged WT HDAC2 (1-488) for 24 h with lipofectamine 2000. Cells were treated with 2.5% CSE for 0.5 h and flag proteins immunoprecipitated using M2 anti-flag antibodies overnight at 4° C. HDAC1 and C) p53 interaction were determined by western blot. D) H292 cells were transfected with plasmid vector (Ctrl V), flag-tagged WT HDAC2 (1-488) or S^394/^411/^422/^424A and 1-400 amino acid HDAC2 mutants for 24 h with lipofectamine 2000. Cells were then exposed to 2.5% CSE for 0.5 h. Levels of HDAC2 interaction with HDAC1 were determined by western blotting using specific antibodies. E) H292 cells were transfected with flag-tagged WT HDAC2 (1-488) for 24 h with lipofectamine 2000. […] Levels of phospho-serine and HDAC2 interaction with SAP30, RbAp46/48, MBD3 and p65 were determined by western blotting using specific antibodies respectively. […] Levels of HDAC1 and p65 binding to immunoprecipitated flag-tagged HDAC2 was determined by western blotting. […] Deacetylase activity of immunoprecipitated HDAC2 was determined using a specific HDAC2 deacetylase activity kit. Data expressed as mean±SEM (n=3). *** P<0.001 significant compared to control treatments."}, "HDAC2 [3]": {"system": "HDAC2", "experiment": "HDAC2 cellular localization in H292 cells (immunofluorescence)", "settings": "acrolein 50 μM, 1 h", "protocol": "as §1, with “Cells were then exposed to 2.5% CSE for 0.5 h.” left out, “antibodies.” for “antibodies. E) H292 cells were transfected with flag-tagged WT HDAC2 (1-488) for 24 h with lipofectamine 2000.”"}, "HDAC2 [4]": {"system": "HDAC2", "experiment": "Deacetylase activity of immunoprecipitated HDAC2 from H292 cells", "settings": "NAC 2 mM 2 h, then CSE 2.5% 0.5 h", "protocol": "as §1, with “Cells were then exposed to 2.5% CSE for 0.5 h.” left out, “antibodies.” for “antibodies. E) H292 cells were transfected with flag-tagged WT HDAC2 (1-488) for 24 h with lipofectamine 2000.”"}}}
{"compound": "C=CC=O", "note": "[acrolein]", "values": [{"measurement": "serine phosphorylation of flag-tagged full length HDAC2", "setting": "HDAC2 [1]; H292, acrolein 50 μM, 1 h", "value": "significantly phosphorylated on serine residues"}, {"measurement": "HDAC2 CK2α′ binding", "setting": "HDAC2 [2]; acrolein 25 and 50 μM, 1 h", "value": "increased HDAC2 CK2α′ binding"}, {"measurement": "HDAC2 cellular localization", "setting": "HDAC2 [3]", "value": "remained localized to the nucleus"}]}
{"compound": "CC(=O)N[C@@H](CS)C(=O)O", "note": "[NAC, N-acetyl cysteine]", "values": [{"measurement": "CSE-induced HDAC2 phosphorylation", "setting": "HDAC2 [1]; H292, flag-tagged WT HDAC2, NAC 2 mM 2 h, then CSE 2.5% 0.5 h", "value": "Inhibiting CSE-induced HDAC 2 phosphorylation"}, {"measurement": "HDAC2 interaction with co-repressor proteins (SAP30, MBD3) and p65", "setting": "HDAC2 [2]; NAC 2 mM 2 h, then CSE 2.5% 0.5 h", "value": "blocked HDAC2 interaction with co-repressor proteins"}, {"measurement": "CSE-induced decrease in HDAC2 deacetylase activity", "setting": "HDAC2 [4]", "value": "rescued"}]}
